Results reported in patent US9937145B2, “Sulfamate derivative compound for use in preventing or treating epilepsy” (Bio-Pharm Solutions Co., Ltd., priority 2013, dated 2018).

Tested on: male ICR mice
Assay: MES test (anti-epilepsy activity), mice, oral (mMES po)
Assay type: in vivo
Settings: Mus musculus, injection amount 9 mg/kg, 3 mice, read-out: mMES(po) Protection %
Experimental: Biological Experimental Example. 1: Measurement of Anti-Epilepsy Activity (MES-Test)
In the MES test (Ref., G. Villetti et al. Neuropharmacology 40(2001) 866-878), an electrical stimulus (mice: 50 mA, 60 Hz, 0.2 sec, and rats: 150 mA, 60 Hz, 0.2 sec in the test animal) supplied by an 11 A Shocker (IITC Life Science Company) was delivered through corneal electrodes. All mice or rats assigned to any electroshock at peak time were treated with each test compound sample which was dissolved in 20% tween 80 prepared by saline solvent applied orally before the test. […] Three doses of the test sample were administered orally to 9-18 animals (3-6 mice per dose) for evaluating the respective doses at which 50% of the animals were protected from seizure (ED50). The ED50 value (median effective close) was calculated by Litchfield and Wicoxon log-probit method which is a dose-response relationship. Experimental animals, male ICR mice and male SD rats, were purchased from OrientBio, Samtako, or Nara Biotech, Korea, and housed in cages (4-5 mice or 3 rats per cage) for 4-5 days. The range of mice body weight was between 19 and 25 grams and range of rats body weight was between 100 and 130 grams.
The obtained results are shown as mean±sem. The difference between the groups was statistically analyzed by ANOVA, and then further examined by Dunnett's test or Bonferroni test. If p is less than 0.05, it was determined that the difference between the groups had statistical significance.
The results of anti-epileptic activity of the sulfamate derivative compounds measured in the above Experimental Example are shown in the following Tables 4 and 5.

Row | SMILES | responders at 9 mg/kg
1 | NS(=O)(=O)OC[C@@H]1OC2(CCCC2)O[C@H]1c1ccccc1 [Example 110, ((2S, 3S)-3-phenyl-1,4-dioxaspiro[4,4]nonan-2-yl)methyl sulfamate] | 33.3%

Same assay, conditions: Mus musculus, injection amount 30 mg/kg, 3 mice, read-out: mMES(po) Protection %

Row | SMILES | responders at 30 mg/kg
2 | NS(=O)(=O)OC[C@@H]1OC2(CCCC2)O[C@H]1c1ccccc1Cl [Example 10, ((2S, 3 S)-3-(2-chlorophenyl)-1,4-dioxaspiro[4,4]nonan-2-yl)methyl sulfamate] | 66%
3 | CC1(C)O[C@@H](COS(N)(=O)=O)[C@H](c2ccccc2)O1 [Example 106, ((4S, 5S)-5-phenyl-2,2-dimethyl-1,3-dioxolan-4-yl)methyl sulfamate] | 100%

Same assay, conditions: Mus musculus, injection amount 50 mg/kg, 3 mice, read-out: mMES(po) Protection %

Row | SMILES | responders at 50 mg/kg
4 | CC1O[C@@H](COS(N)(=O)=O)[C@H](c2ccccc2Cl)O1 (stereo partly drawn) [Example 6, ((4S, 5S)-5-(2-chlorophenyl)-2-methyl-1,3-dioxolan-4-yl)methyl sulfamate] | 33%
5 | CC1(C)O[C@@H](COS(N)(=O)=O)[C@H](c2c(Cl)cccc2Cl)O1 [Example 52, ((4S, 5S)-5-(2,6-dichlorophenyl)-2,2-dimethyl-1,3-dioxolan-4-yl)methyl sulfamate] | 100%
6 | CCC1(CC)O[C@@H](COS(N)(=O)=O)[C@H](c2ccccc2N)O1 [Example 70, ((4S, 5S)-5-(2-aminophenyl)-2,2-diethyl-1,3-dioxolan-4-yl)methyl sulfamate] | 100%
7 | Nc1ccccc1[C@@H]1OC(c2ccccc2)O[C@H]1COS(N)(=O)=O (stereo partly drawn) [Example 76, ((4S, 5S)-5-(2-aminophenyl)-2-phenyl-1,3-dioxolan-4-yl)methyl sulfamate] | 66%
8 | Cc1ccccc1[C@@H]1OC(C)(C)O[C@H]1COS(N)(=O)=O [Example 92, ((4S, 5S)-5-(2-methylphenyl)-2,2-dimethyl-1,3-dioxolan-4-yl)methyl sulfamate] | 100%
9 | CNc1ccccc1[C@@H]1OC(C)(C)O[C@H]1COS(=O)(=O)NC [Example 104, ((4S, 5S)-5-(2-methylaminophenyl)-2,2-dimethyl-1,3-dioxolan-4-yl)methyl methylsulfamate] | 66.6%
10 | CCC1(CC)O[C@@H](COS(N)(=O)=O)[C@H](c2ccccc2)O1 [Example 108, ((4S, 5S)-5-phenyl-2,2-diethyl-1,3-dioxolan-4-yl)methyl sulfamate] | 100%
11 | NS(=O)(=O)OC[C@@H]1OC2(CCCCC2)O[C@H]1c1ccccc1 [Example 112, ((2S, 3S)-3-phenyl-1,4-dioxaspiro[4,5]decan-2-yl)methyl sulfamate] | 100%
12 | CC1(C)O[C@H](COS(N)(=O)=O)[C@@H](Cc2ccccc2)O1 [Example 122, ((4R, 5R)-5-benzyl-2,2-dimethyl-1,3-dioxolan-4-yl)methyl sulfamate] | 100%
13 | CCC1(CC)O[C@H](COS(N)(=O)=O)[C@@H](Cc2ccccc2)O1 [Example 124, ((4R, 5R)-5-benzyl-2,2-diethyl-1,3-dioxolan-4-yl)methyl sulfamate] | 100%
14 | NS(=O)(=O)OC[C@H]1OC2(CCCC2)O[C@@H]1Cc1ccccc1 [Example 126, ((2R, 3R)-3-benzyl-1,4-dioxaspiro[4,4]nonan-2-yl)methyl sulfamate] | 100%
15 | NS(=O)(=O)OC[C@H]1OC2(CCCCC2)O[C@@H]1Cc1ccccc1 [Example 128, ((2R, 3R)-3-benzyl-1,4-dioxaspiro[4,5]decan-2-yl)methyl sulfamate] | 100%
16 | CC1(C)O[C@@H](CCOS(N)(=O)=O)[C@H](c2ccccc2)O1 [Example 130, 2-((4S, 5S)-5-phenyl-2,2-dimethyl-1,3-dioxolan-4-yl)ethyl sulfamate] | 33.3%
17 | NS(=O)(=O)OCC[C@@H]1OC2(CCCC2)O[C@H]1c1ccccc1 [Example 134, 2-((2S, 3S)-3-phenyl-1,4-dioxaspiro[4,4]nonan-2-yl)ethyl sulfamate] | 100%
18 | NS(=O)(=O)OCC[C@@H]1OC2(CCCCC2)O[C@H]1c1ccccc1 [Example 136, 2-((2S, 3S)-3-phenyl-1,4-dioxaspiro[4,5]decan-2-yl)ethyl sulfamate] | 100%
19 | CCC1(CC)O[C@H](CCOS(N)(=O)=O)[C@@H](Cc2ccccc2Cl)O1 [Example 140, 2-((4R, 5R)-5-(2-chlorobenzyl)-2,2-diethyl-1,3-dioxolan-4-yl)ethyl sulfamate] | 33.3%

Same assay, conditions: Mus musculus, injection amount 50 mg/kg, 4 mice, read-out: mMES(po) Protection %

Row | SMILES | responders at 50 mg/kg
20 | CCC1(CC)O[C@@H](COS(N)(=O)=O)[C@H](c2ccccc2Cl)O1 [Example 8, ((4S, 5S)-5-(2-chlorophenyl)-2,2-diethyl-1,3-dioxolan-4-yl)methyl sulfamate] | 100%
21 | NS(=O)(=O)OC[C@@H]1OC2(CCCCC2)O[C@H]1c1ccccc1Cl [Example 12, ((2S, 3S)-3-(2-chlorophenyl)-1,4-dioxaspiro[4,5]decan-2-yl)methyl sulfamate] | 100%

Same assay, conditions: Mus musculus, injection amount 80 mg/kg, 3 mice, read-out: mMES(po) Protection %

Row | SMILES | responders at 80 mg/kg
22 | CC1(C)O[C@H](CCOS(N)(=O)=O)[C@@H](Cc2ccccc2)O1 [Example 114, 2-((4R, 5R)-5-benzyl-2,2-dimethyl-1,3-dioxolan-4-yl)ethyl sulfamate] | 33.3%
23 | NS(=O)(=O)OCC[C@H]1OC2(CCCC2)O[C@@H]1Cc1ccccc1 [Example 118, 2-((2R, 3R)-3-benzyl-1,4-dioxaspiro[4,4]nonan-2-yl)ethyl sulfamate] | 66.6%
24 | NS(=O)(=O)OCC[C@H]1OC2(CCCCC2)O[C@@H]1Cc1ccccc1 [Example 120, 2-((2R, 3R)-3-benzyl-1,4-dioxaspiro[4,5]decane-2-yl)ethyl sulfamate] | 66.6%
25 | CCC1(CC)O[C@@H](CCOS(N)(=O)=O)[C@H](c2ccccc2)O1 [Example 132, 2-((4S, 5S)-5-phenyl-2,2-diethyl-1,3-dioxolan-4-yl)ethyl sulfamate] | 33.3%
26 | CC1(C)O[C@H](CCOS(N)(=O)=O)[C@@H](Cc2ccccc2Cl)O1 [Example 138, 2-((4R, 5R)-5-(2-chlorobenzyl)-2,2-dimethyl-1,3-dioxolan-4-yl)ethyl sulfamate] | 33.3%
27 | NS(=O)(=O)OCC[C@H]1OC2(CCCC2)O[C@@H]1Cc1ccccc1Cl [Example 142, 2-((2R, 3R)-3-(2-chlorobenzyl)-1,4-dioxaspiro[4,4]nonan-2-yl)ethyl sulfamate] | 33.3%

Same assay, conditions: Mus musculus, injection amount 150 mg/kg, 3 mice, read-out: mMES(po) Protection %

Row | SMILES | responders at 150 mg/kg
28 | CCC1(CC)O[C@H](CCOS(N)(=O)=O)[C@@H](Cc2ccccc2)O1 [Example 116, 2-((4R, 5R)-5-benzyl-2,2-diethyl-1,3-dioxolan-4-yl)ethyl sulfamate] | 33.3%

Same assay, conditions: Mus musculus, mice, at peak time

Row | SMILES | ED50
29 | CC1(C)OC(COS(N)(=O)=O)C(c2ccccc2Cl)O1 (mixture of isomers) [Example 3, (5-(2-chlorophenyl)-2,2-dimethyl-1,3-dioxolan-4-yl)methyl sulfamate(SS & RR mixture)] | 14 mg/kg
30 | CC1(C)O[C@H](c2ccccc2I)[C@@H](COS(N)(=O)=O)O1 [Example 27, ((4R, 5R)-5-(2-iodophenyl)-2,2-dimethyl-1,3-dioxolan-4-yl)methyl sulfamate] | 27.6 mg/kg
31 | CC1(C)O[C@@H](COS(N)(=O)=O)[C@H](c2ccc(Cl)cc2Cl)O1 [Example 40, ((4S, 5S)-5-(2,4-dichlorophenyl)-2,2-dimethyl-1,3-dioxolan-4-yl)methyl sulfamate] | 49.2 mg/kg
32 | Nc1ccccc1[C@@H]1OC2(CCCCC2)O[C@H]1COS(N)(=O)=O [Example 74, ((2S, 3S)-3-(2-aminophenyl)-1,4-dioxaspiro[4,5]decan-2-yl)methyl sulfamate] | 14.5 mg/kg
